ChEMBL document CHEMBL1201862, “PubChem BioAssay data set” (2004)
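How tested: cells in 96-well plates exposed to compound for 48 hours at five concentrations. GI50 is the concentration that inhibits growth by half.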 Calls of active or inactive are those of the source. No stated cut-off is given here; in the data, active = GI50 up to about 1.1 µM and inactive = higher.

How the values were obtained:
Assay in all cases: growth of human tumour cells (NCI), 48 h
[1] = tested on: HT-29
[2] = tested on: ACHN
[3] = tested on: RXF 393
[4] = tested on: LOX IMVI
[5] = tested on: HOP-92
[6] = tested on: IGROV-1
[7] = tested on: SNB-75
[8] = tested on: UACC-62
[9] = tested on: NCI-H23
[10] = tested on: HCT-116
[11] = tested on: Malme-3M
[12] = tested on: UO-31
[13] = tested on: NCI-H460
[14] = tested on: SF-539
[15] = tested on: RPMI-8226
[16] = tested on: OVCAR-8
[17] = tested on: HOP-18
[18] = tested on: COLO 205
[19] = tested on: LXFL 529
[20] = tested on: KM-20L2
[21] = tested on: HOP-62
[22] = tested on: M14
[23] = tested on: OVCAR-3
[24] = tested on: MOLT-4
[25] = tested on: XF498
[26] = tested on: DMS-273
[27] = tested on: SNB-19
[28] = tested on: SK-MEL-2
[29] = tested on: A498
[30] = tested on: UACC-257
[31] = tested on: SN12C
[32] = tested on: NCI-H522
[33] = tested on: SK-OV-3
[34] = tested on: M19-MEL
[35] = tested on: DMS-114
[36] = tested on: U-251
[37] = tested on: NCI-H226
[38] = tested on: SF-268
[39] = tested on: HL-60
[40] = tested on: CAKI-1
[41] = tested on: HCT-15
[42] = tested on: KM12
[43] = tested on: SW-620
[44] = tested on: SK-MEL-5
[45] = tested on: K562
[46] = tested on: HCC 2998
[47] = tested on: CCRF-CEM
[48] = tested on: TK-10
[49] = tested on: DLD-1
[50] = tested on: A549
[51] = tested on: OVCAR-5
[52] = tested on: EKVX
[53] = tested on: SF-295
[54] = tested on: SNB-78
[55] = tested on: 786-0
[56] = tested on: SK-MEL-28
[57] = tested on: SR
[58] = tested on: RXF 631
[59] = tested on: OVCAR-4

COc1ccc(N2C(=O)C3C=CC(n4[nH]c(=O)n(Cc5ccccc5)c4=O)CC3C2=O)cc1 (stereo not drawn)
GI50 [1]: > 100 µM (inactive) | GI50 [2]: > 100 µM (inactive) | GI50 [3]: > 100 µM (inactive) | GI50 [4]: > 100 µM (inactive) | GI50 [5]: > 100 µM (inactive) | GI50 [6]: > 100 µM (inactive) | GI50 [7]: > 100 µM (inactive) | GI50 [8]: > 100 µM (inactive) | GI50 [9]: > 100 µM (inactive) | GI50 [10]: > 100 µM (inactive) | GI50 [11]: > 100 µM (inactive) | GI50 [12]: > 100 µM (inactive) | GI50 [13]: > 100 µM (inactive) | GI50 [14]: > 100 µM (inactive) | GI50 [15]: > 100 µM (inactive) | GI50 [16]: > 100 µM (inactive) | GI50 [17]: > 100 µM (inactive) | GI50 [18]: > 100 µM (inactive) | GI50 [19]: > 100 µM (inactive) | GI50 [20]: > 100 µM (inactive) | GI50 [21]: > 100 µM (inactive) | GI50 [22]: > 100 µM (inactive) | GI50 [23]: > 100 µM (inactive) | GI50 [24]: > 100 µM (inactive) | GI50 [25]: > 100 µM (inactive) | GI50 [26]: > 100 µM (inactive) | GI50 [27]: > 100 µM (inactive) | GI50 [28]: > 100 µM (inactive) | GI50 [29]: 86.7 µM (inactive) | GI50 [30]: > 100 µM (inactive) | GI50 [31]: > 100 µM (inactive) | GI50 [32]: > 100 µM (inactive) | GI50 [33]: > 100 µM (inactive) | GI50 [34]: > 100 µM (inactive) | GI50 [35]: > 100 µM (inactive) | GI50 [36]: > 100 µM (inactive) | GI50 [37]: > 100 µM (inactive) | GI50 [38]: > 100 µM (inactive) | GI50 [39]: > 100 µM (inactive) | GI50 [40]: > 100 µM (inactive) | GI50 [41]: > 100 µM | GI50 [42]: > 100 µM (inactive) | GI50 [43]: > 100 µM (inactive) | GI50 [44]: > 100 µM (inactive) | GI50 [45]: > 100 µM (inactive) | GI50 [46]: > 100 µM (inactive) | GI50 [47]: > 100 µM (inactive) | GI50 [48]: > 100 µM (inactive) | GI50 [49]: > 100 µM (inactive) | GI50 [50]: > 100 µM (inactive) | GI50 [51]: > 100 µM (inactive) | GI50 [52]: > 100 µM (inactive) | GI50 [53]: > 100 µM (inactive) | GI50 [54]: > 100 µM (inactive) | GI50 [55]: > 100 µM (inactive) | GI50 [56]: > 100 µM (inactive)

COC(=O)N/N=C(\C)c1c(O)cc(C)oc1=O
GI50 [1]: 65.3 µM (inactive) | GI50 [2]: 25.8 µM (inactive) | GI50 [4]: 7.85 µM (inactive) | GI50 [5]: > 100 µM (inactive) | GI50 [6]: > 100 µM (inactive) | GI50 [7]: > 100 µM (inactive) | GI50 [8]: 5.62 µM (inactive) | GI50 [9]: > 100 µM (inactive) | GI50 [10]: 98.4 µM (inactive) | GI50 [11]: > 100 µM (inactive) | GI50 [12]: 40.1 µM (inactive) | GI50 [13]: 37.8 µM (inactive) | GI50 [14]: 14.7 µM (inactive) | GI50 [57]: 37.2 µM (inactive) | GI50 [16]: 59.3 µM (inactive) | GI50 [19]: 10.8 µM (inactive) | GI50 [20]: 22.1 µM (inactive) | GI50 [21]: 36.2 µM (inactive) | GI50 [22]: 35.2 µM (inactive) | GI50 [24]: 18.5 µM (inactive) | GI50 [58]: > 100 µM (inactive) | GI50 [27]: > 100 µM (inactive) | GI50 [28]: 41.4 µM (inactive) | GI50 [29]: > 100 µM (inactive) | GI50 [30]: > 100 µM (inactive) | GI50 [31]: 78.5 µM (inactive) | GI50 [33]: > 100 µM (inactive) | GI50 [59]: > 100 µM (inactive) | GI50 [36]: 28.8 µM (inactive) | GI50 [37]: > 100 µM (inactive) | GI50 [38]: 22.1 µM (inactive) | GI50 [39]: 45.2 µM (inactive) | GI50 [41]: 17 µM | GI50 [42]: 52.6 µM (inactive) | GI50 [43]: 25.9 µM (inactive) | GI50 [44]: 50.8 µM (inactive) | GI50 [45]: 17.5 µM (inactive) | GI50 [46]: 43.9 µM (inactive) | GI50 [47]: 46 µM (inactive) | GI50 [48]: 33.2 µM (inactive) | GI50 [49]: 30.1 µM (inactive) | GI50 [50]: 29 µM (inactive) | GI50 [52]: > 100 µM (inactive) | GI50 [53]: 29.4 µM (inactive) | GI50 [54]: > 100 µM (inactive) | GI50 [55]: 56.2 µM (inactive) | GI50 [56]: 50.8 µM (inactive)
